Reference: patent publication US5770687A, “Comformationally constrained backbone cyclized somatostatin analogs” (Peptor Limited, priority 1996, dated 1998)
pIC50: −log10 of the molar value. Read-outs that look alike come from different tables or passages of the source. Peptide text beside a SMILES is read from it.

What was measured:
[1] = target: T1, SSTR-4 (Homo sapiens, UniProt P31391); conditions: Table 22; known SST analogs, literature values; cited from earlier work
[2] = target: T2, human SSTR-5 (Homo sapiens, UniProt P35346); conditions: Table 22; known SST analogs, literature values; read-out: IC50 value hSSTR 5; cited from earlier work
[3] = target: T3, rat SSTR-5 (Rattus norvegicus, UniProt P30938); conditions: Table 22; known SST analogs, literature values; read-out: IC50 value rSSTR 5; cited from earlier work
T3 sequence (P30938 1-363): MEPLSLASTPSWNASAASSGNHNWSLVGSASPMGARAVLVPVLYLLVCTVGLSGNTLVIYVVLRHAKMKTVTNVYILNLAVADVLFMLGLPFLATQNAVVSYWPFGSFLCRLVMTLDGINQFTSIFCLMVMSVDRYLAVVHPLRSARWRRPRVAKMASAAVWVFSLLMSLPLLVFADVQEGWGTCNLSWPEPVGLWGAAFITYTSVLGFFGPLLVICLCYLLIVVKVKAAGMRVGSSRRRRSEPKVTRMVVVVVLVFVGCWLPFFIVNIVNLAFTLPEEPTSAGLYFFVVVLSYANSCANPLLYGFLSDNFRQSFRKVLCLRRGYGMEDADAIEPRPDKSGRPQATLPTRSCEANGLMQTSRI

[4] = target: T1, SSTR-4; test: Radioligand binding, inhibition of 125I-Tyr11-SRIF binding to cloned SSTR-4
Description: (§1) The somatostatin analogs were tested for their potency in inhibition of the binding of ^125 I-Tyr^11 -SRIF (based on the method described by Raynor et. al., Molecular Pharmacology 43, 838-844, 1993) to membrane preparations expressing the transmembranal somatostatin receptors (SSTR-1,2,3,4 or 5). The receptor preparations used for these tests were either from the cloned receptors selectively and stably expressed in Chinese Hamster Ovary (CHO) cells or from cell lines naturally expressing the SSTRs. […] The binding reactions were filtered, the filters were washed and the bound radioactivity was counted in gamma counter. […] In order to validate positive signals of the binding tests, and to eliminate non-specific signals, samples of irrelevant peptides, such as GnRH, that were synthesized and handled using the same procedures, were tested in the same assays as negative control samples.

[5] = target: T2, human SSTR-5; test: Radioligand binding, inhibition of 125I-Tyr11-SRIF binding to cloned human SSTR-5
Description: as §1

[6] = target: T4, SSTR-1 (Homo sapiens, UniProt P30872); test: Radioligand binding, inhibition of 125I-Tyr11-SRIF binding to cloned SSTR-1
Description: as §1

[7] = target: T5, SSTR-3 (Homo sapiens, UniProt P32745); test: Radioligand binding, inhibition of 125I-Tyr11-SRIF binding to cloned SSTR-3
Description: as §1

[8] = target: T3, rat SSTR-5; test: Radioligand binding, inhibition of 125I-Tyr11-SRIF binding to cloned rat SSTR-5
Description: as §1

[9] = target: T5, SSTR-3; conditions: Table 22; known SST analogs, literature values; cited from earlier work
[10] = target: T4, SSTR-1; conditions: Table 22; known SST analogs, literature values; cited from earlier work
[11] = system: SSTR-2; conditions: Table 22; known SST analogs, literature values; cited from earlier work

T2 sequence (P35346 whole entry): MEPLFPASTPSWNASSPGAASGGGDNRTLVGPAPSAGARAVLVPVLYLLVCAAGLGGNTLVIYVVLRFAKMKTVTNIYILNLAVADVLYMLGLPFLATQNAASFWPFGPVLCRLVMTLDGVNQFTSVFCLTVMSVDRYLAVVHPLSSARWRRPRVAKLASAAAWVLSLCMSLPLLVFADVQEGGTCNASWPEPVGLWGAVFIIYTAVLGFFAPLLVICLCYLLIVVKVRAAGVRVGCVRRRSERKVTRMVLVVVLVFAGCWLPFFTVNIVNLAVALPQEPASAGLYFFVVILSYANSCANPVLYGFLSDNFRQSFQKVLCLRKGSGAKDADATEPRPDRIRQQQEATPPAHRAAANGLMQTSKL
T4 sequence (P30872 whole entry, species assumed): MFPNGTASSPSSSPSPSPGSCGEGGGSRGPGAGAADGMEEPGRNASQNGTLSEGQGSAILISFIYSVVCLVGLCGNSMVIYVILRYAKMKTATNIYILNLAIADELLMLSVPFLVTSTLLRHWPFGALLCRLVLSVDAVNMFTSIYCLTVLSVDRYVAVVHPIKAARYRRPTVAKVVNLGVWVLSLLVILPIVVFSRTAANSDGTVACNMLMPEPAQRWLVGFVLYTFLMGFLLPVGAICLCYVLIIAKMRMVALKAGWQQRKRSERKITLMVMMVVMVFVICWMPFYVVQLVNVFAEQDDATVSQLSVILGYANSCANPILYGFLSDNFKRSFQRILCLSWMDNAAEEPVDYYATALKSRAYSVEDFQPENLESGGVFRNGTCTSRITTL
T1 sequence (P31391 whole entry, species assumed): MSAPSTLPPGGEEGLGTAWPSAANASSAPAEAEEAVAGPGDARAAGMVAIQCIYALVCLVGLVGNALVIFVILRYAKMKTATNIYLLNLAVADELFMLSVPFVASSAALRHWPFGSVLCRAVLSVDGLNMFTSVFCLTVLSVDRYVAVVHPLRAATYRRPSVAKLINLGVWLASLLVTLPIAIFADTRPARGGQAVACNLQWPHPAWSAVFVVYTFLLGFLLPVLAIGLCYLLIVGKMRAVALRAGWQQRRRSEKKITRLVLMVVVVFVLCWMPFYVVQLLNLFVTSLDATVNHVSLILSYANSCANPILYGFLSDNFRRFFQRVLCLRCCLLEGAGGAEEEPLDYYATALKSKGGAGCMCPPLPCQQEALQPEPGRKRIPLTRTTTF
T5 sequence (P32745 whole entry, species assumed): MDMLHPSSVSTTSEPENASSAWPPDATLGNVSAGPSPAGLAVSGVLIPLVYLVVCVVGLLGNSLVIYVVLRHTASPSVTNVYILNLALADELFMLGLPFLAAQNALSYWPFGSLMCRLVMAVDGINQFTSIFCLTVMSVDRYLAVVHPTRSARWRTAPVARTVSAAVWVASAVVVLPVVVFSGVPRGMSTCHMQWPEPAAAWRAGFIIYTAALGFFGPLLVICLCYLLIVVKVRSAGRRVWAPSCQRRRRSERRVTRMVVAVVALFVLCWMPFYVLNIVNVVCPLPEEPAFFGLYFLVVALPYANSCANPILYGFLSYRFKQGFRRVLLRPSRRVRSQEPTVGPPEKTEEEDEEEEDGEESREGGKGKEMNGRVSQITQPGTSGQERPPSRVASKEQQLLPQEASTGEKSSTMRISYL

Molecule	pIC50 [1]	pIC50 [2]	pIC50 [3]	pIC50 [4]	pIC50 [5]	pIC50 [6]	pIC50 [7]	pIC50 [8]	pIC50 [9]	pIC50 [10]	pIC50 [11]
DPhe^5 -Phe^6 -Phe^7 -DTrp^8 -Lys^9 -Thr^10 -Phe^11 -Thr^12 -NH2 [BIM-23052]	7.74	8.40	11.40	–	–	–	–	–	–	–	–
C[C@@H](O)[C@H](NC(=O)CN1CCC(=O)NCCCN(C(=O)[C@H](N)Cc2ccccc2)CC(=O)N[C@@H](Cc2ccccc2)C(=O)N[C@H](Cc2c[nH]c3ccccc23)C(=O)N[C@@H](CCCCN)C(=O)N[C@@H]([C@@H](C)O)C1=O)C(N)=O [PTR 3010] (HELM PEPTIDE1{[dF].[O=C(CN(CCCN[*:3])[*:1])[*:2]].F.[dW].K.T.[O=C(CN(CCC(=O)[*:3])[*:1])[*:2]].T.[am]}$PEPTIDE1,PEPTIDE1,2:R3-7:R3$$$V2.0)	–	–	–	< 5.00	< 5.70	5.60	< 6.00	6.30	–	–	–
CC(C)[C@@H]1NC(=O)[C@H](CCCCN)NC(=O)[C@@H](Cc2c[nH]c3ccccc23)NC(=O)[C@H](Cc2ccc(O)cc2)NC(=O)[C@@H](NC(=O)[C@H](N)Cc2ccc3ccccc3c2)CSSC[C@@H](C(=O)N[C@H](C(N)=O)[C@@H](C)O)NC1=O [Somatuline]	–	–	9.30	–	–	–	–	–	8.22	6.10	8.70
